Converted amounts (≈) assume the structure as drawn. One block for each compound: values may come before it.
How the values were obtained:
[1] = Oral bioavailability in CD-1 mouse at 1 mg/kg; assay type: ADME, organism-based; conditions: in vivo
[2] = Intrinsic clearance in rat hepatocytes assessed per million cells; assay type: ADME, cell-based, Hepatocyte; conditions: read-out: CLH
[3] = Antitumor activity against human PDX GA2254 cells xenografted in Balb/c nude mouse at 10 mg/kg, po bid measured for 21 days relative to control; assay type: functional; conditions: PDX GA2254, 504 h, time 21 day, read-out: TGI
[4] = Volume of distribution at steady state in CD-1 mouse at 1 mg/kg, po or 0.5 mg/kg, iv; assay type: ADME, organism-based; conditions: in vivo
[5] = Toxicity in nude mouse xenografted with human Lu-99 cells assessed as body weight loss upto 100 mg/kg, po bid measured for 21 days; assay type: organism-based; conditions: in vivo, 504 h, time 21 day
[6] = target: Translocator protein (Homo sapiens, UniProt P30536); test: Inhibition of human TSPO
Sequence of Translocator protein (P30536 whole entry): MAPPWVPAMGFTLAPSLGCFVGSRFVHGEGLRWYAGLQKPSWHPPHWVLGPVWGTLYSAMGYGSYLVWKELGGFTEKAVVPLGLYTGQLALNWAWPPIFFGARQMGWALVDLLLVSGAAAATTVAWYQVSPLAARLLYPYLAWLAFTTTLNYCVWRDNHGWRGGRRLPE

[7] = in vitro; conditions: human, Caco-2
Description: Apparent permeability across apical to basal side of human Caco-2 cells at 10 uM

[8] = Half life in CD-1 mouse at 1 mg/kg, po or 0.5 mg/kg, iv; assay type: ADME, organism-based; conditions: in vivo
[9] = Antitumor activity against human PDX GA2254 cells xenografted in Balb/c nude mouse assessed as tumor regression at 50 mg/kg, po bid measured for 21 days relative to control; assay type: functional; conditions: time 21 day
[10] = Antitumor activity against human PDX GA2254 cells xenografted in Balb/c nude mouse assessed as inhibition of SDMA level at 50 mg/kg, po bid measured for 21 days relative to control; assay type: functional; conditions: PDX GA2254, 504 h, time 21 day, read-out: TGI
[11] = test system: Lu-99 cell line; test: Antitumor activity against human Lu-99 cells xenografted in nude mouse assessed as inhibition of SDMA level administered orally twice a day measured for 21 days; assay type: functional, cell-based; conditions: dose 1-10 mg/kg, route po, time 21.0 day
[12] = test system: Lu-99 cell line; test: Antitumor activity against human Lu-99 cells xenografted in nude mouse assessed as inhibition of SDMA level at 100 mg/kg, po bid measured after 21 days relative to control; assay type: functional; conditions: Lu-99, 504 h, time 21 day
[13] = Oral bioavailability at steady state in Wistar Han rat at 1 mg/kg; assay type: ADME, organism-based; conditions: in vivo
[14] = Intrinsic clearance in human hepatocytes assessed per million cells; assay type: ADME, cell-based, Hepatocyte; conditions: read-out: CLH
[15] = Volume of distribution at steady state in Wistar Han rat at 1 mg/kg, po or 0.5 mg/kg, iv; assay type: ADME, organism-based; conditions: in vivo
[16] = physchem; conditions: phosphate buffer, pH 7.4
[17] = Half life in Wistar Han rat at 1 mg/kg, po or 0.5 mg/kg, iv; assay type: ADME, organism-based; conditions: in vivo
[18] = test system: Lu-99 cell line; test: Antiproliferative activity against human Lu-99 cells incubated for 7 days; assay type: functional, cell-based; conditions: Lu-99, 168 h
[19] = test system: Lu-99 cell line; test: Antitumor activity against human Lu-99 cells xenografted in nude mouse at 100 mg/kg, po bid measured after 21 days relative to control; assay type: functional; conditions: Lu-99, 504 h, time 21 day, read-out: TGI
[20] = physchem; conditions: buffer, pH 7.4
Description: Lipophilicity, logD of compound at pH 7.4

[21] = test system: Lu-99 cell line; test: Antitumor activity against human Lu-99 cells xenografted in nude mouse assessed as tumor growth inhibition administered orally twice a day measured for 21 days; assay type: functional, cell-based; conditions: dose 1-10 mg/kg, route po, time 21.0 day
[22] = Antitumor activity against human PDX GA2254 cells xenografted in Balb/c nude mouse assessed as inhibition of SDMA level at 1 mg/kg, po bid measured for 21 days relative to control; assay type: functional; conditions: PDX GA2254, 504 h, time 21 day, read-out: TGI
[23] = Antitumor activity against human PDX GA2254 cells xenografted in Balb/c nude mouse assessed as inhibition of SDMA level at 10 mg/kg, po bid measured for 21 days relative to control; assay type: functional; conditions: PDX GA2254, 504 h, time 21 day, read-out: TGI
[24] = test system: HCT-116; test: Cooperativity fold, ratio of IC50 for PRMT5 in human HCT-116 cells expressing wild-type MTAP assessed as decrease in SMDA level to IC50 for PRMT5 in human HCT-116 cells with MTAP KO assessed as decrease in SMDA level; assay type: cell-based
[25] = target: Protein arginine N-methyltransferase 5 (Homo sapiens, UniProt O14744)
Sequence of Protein arginine N-methyltransferase 5 (O14744 whole entry): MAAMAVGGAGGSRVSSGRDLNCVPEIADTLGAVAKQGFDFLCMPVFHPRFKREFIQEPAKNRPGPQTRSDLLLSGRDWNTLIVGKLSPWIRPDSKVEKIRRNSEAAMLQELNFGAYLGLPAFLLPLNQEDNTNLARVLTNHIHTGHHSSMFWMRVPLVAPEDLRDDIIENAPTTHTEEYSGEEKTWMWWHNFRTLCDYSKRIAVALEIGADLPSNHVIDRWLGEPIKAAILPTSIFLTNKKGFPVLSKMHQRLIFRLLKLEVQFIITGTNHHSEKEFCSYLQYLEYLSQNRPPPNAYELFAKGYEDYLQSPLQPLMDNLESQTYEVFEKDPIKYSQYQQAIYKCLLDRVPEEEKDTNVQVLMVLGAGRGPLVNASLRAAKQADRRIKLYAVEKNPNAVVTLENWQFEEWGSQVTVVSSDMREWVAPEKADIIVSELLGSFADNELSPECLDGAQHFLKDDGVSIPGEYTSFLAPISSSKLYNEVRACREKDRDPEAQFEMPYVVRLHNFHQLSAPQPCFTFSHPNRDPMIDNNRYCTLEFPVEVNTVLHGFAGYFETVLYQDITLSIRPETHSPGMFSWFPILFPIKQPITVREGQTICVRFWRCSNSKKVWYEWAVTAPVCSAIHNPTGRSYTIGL
Description: Inhibition of PRMT5 in human HCT-116 cells with MTAP KO assessed as decrease in SMDA level incubated for 48 hrs by immunofluorescence analysis

[26] = Unbound protein binding in rat plasma by equilibrium dialysis; assay type: ADME, cell-free
[27] = target: T1, PRMT5/MEP50 complex (Homo sapiens, UniProt O14744); test: biochemical
T1 sequence (O14744 whole entry): as above
T1 sequence (Q9BQA1 whole entry, further chain): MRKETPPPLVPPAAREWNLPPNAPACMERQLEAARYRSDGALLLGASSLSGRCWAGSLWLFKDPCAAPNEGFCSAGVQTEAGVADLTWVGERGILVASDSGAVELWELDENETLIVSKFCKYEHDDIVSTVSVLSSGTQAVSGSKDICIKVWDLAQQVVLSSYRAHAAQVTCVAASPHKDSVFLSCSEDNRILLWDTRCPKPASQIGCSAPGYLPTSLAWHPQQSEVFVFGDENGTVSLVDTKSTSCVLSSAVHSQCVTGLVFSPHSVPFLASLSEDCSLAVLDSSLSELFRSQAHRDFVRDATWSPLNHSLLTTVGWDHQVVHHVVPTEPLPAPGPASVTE
Description: Inhibition of PRMT5 (1 to 637 residues)/MEP504 (2 to 342 residues)(unknown origin) expressed in baculovirus infected Sf21 insect cells using histone H4/SAM as substrate incubated for 5 hrs in presence of MTA by MTase Glo assay

[28] = target: T1, PRMT5/MEP50 complex; test: biochemical; remark: listed apart in the source
Description: Inhibition of PRMT5 (1 to 637 residues)/MEP504 (2 to 342 residues)(unknown origin) expressed in baculovirus infected Sf21 insect cells using histone H4/SAM as substrate incubated for 5 hrs by MTase Glo assay

Compound: Nc1nc2cc(CN3C(=O)c4cc(F)ccc4[C@]34CCN(Cc3ccc(F)cc3)C4=O)[nH]c2cc1F
bioavailability [1]: 101%
hepatocyte CLint [2]: < 5 µL/min/1e6 cells
inhibition in vivo at 10 mg/kg [3]: 33%
Vdss [4]: 2.1 L/kg
Activity [5]: Non-Toxic
Ki [6]: 610 nM
Papp A→B at 10 µM [7]: 48 ×10⁻⁶ cm/s
half-life [8]: 204 min
Activity [9]: 50%
inhibition in vivo at 50 mg/kg [10]: 97%
inhibition [11]: Dose-Dependent Effect
inhibition in vivo at 100 mg/kg [12]: 95%
bioavailability [13]: 35%
hepatocyte CLint [14]: < 1 µL/min/1e6 cells
Vdss [15]: 2.4 L/kg
solubility at 24 h [16]: 8 µM (≈ 3.93 µg/mL)
half-life [17]: 108 min
IC50 [18]: 124 nM
inhibition in vivo at 100 mg/kg [19]: 71%
logD [20]: 2.8
inhibition [21]: Dose-Dependent Effect
inhibition in vivo at 1 mg/kg [22]: 51%
inhibition in vivo at 10 mg/kg [23]: 93%

Compound: O=C(NCc1ccc(F)cc1)C1c2ccc(F)cc2C(=O)N1Cc1cc2ncccc2[nH]1 (configuration not stated)
hepatocyte CLint [2]: 112 µL/min/1e6 cells
logD [20]: 3.4

Compound: O=C1c2cc(F)ccc2[C@@]2(CCN(Cc3ccc(F)cc3)C2=O)N1Cc1cc2cccnc2[nH]1
hepatocyte CLint [2]: 188 µL/min/1e6 cells
logD [20]: 3.4

Compound: N=C(N)Nc1ncc(CN2C(=O)c3ccccc3C2C(=O)NCc2ccc(F)cc2)s1 (configuration not stated)
hepatocyte CLint [2]: 34 µL/min/1e6 cells
bioavailability [13]: 2%
Vdss [15]: 1.6 L/kg
half-life [17]: 66 min
fraction unbound [26]: 0.19

Compound: O=C(NCc1ccc(F)cc1)C1c2ccccc2C(=O)N1Cc1cc2cccnc2[nH]1 (configuration not stated)
hepatocyte CLint [2]: 131 µL/min/1e6 cells
Papp A→B at 10 µM [7]: 90 ×10⁻⁶ cm/s
logD [20]: 3.3

Compound: N=C(N)Nc1cc(CN2C(=O)c3ccccc3C2C(=O)NCc2ccc(F)cc2)ccn1 (configuration not stated)
hepatocyte CLint [2]: 17 µL/min/1e6 cells
IC50 [27]: 2950 nM
logD [20]: 0.9
IC50 [28]: 27 µM
IC50 [25]: > 30000 nM

Compound: COc1ccc2c(c1)C(=O)N(Cc1cnc(NC(=N)N)s1)C2C(=O)NCc1ccc(F)cc1 (configuration not stated)
hepatocyte CLint [2]: 22 µL/min/1e6 cells
IC50 [27]: 12 nM
logD [20]: 2.3
Ratio IC50 [24]: 7.7
IC50 [28]: 0.051 µM
IC50 [25]: 380 nM

Compound: COc1cccc2c1C(=O)N(Cc1cnc(NC(=N)N)s1)C2C(=O)NCc1ccc(F)cc1 (configuration not stated)
hepatocyte CLint [2]: 11 µL/min/1e6 cells
logD [20]: 1.9

Compound: O=C1c2cc(F)ccc2[C@]2(CCN(Cc3ccc(F)cc3)C2=O)N1Cc1cc2ncccc2[nH]1
hepatocyte CLint [2]: 246 µL/min/1e6 cells
logD [20]: 3.1

Continued, in another order:

hepatocyte CLint [2]: 64 µL/min/1e6 cells
logD [20]: 2.6
Compound: N=C(N)Nc1ncc(CN2C(=O)c3ccccc3C2C(=O)N(Cc2ccc(F)cc2)C2CC2)s1 (configuration not stated)

hepatocyte CLint [2]: 22 µL/min/1e6 cells
Papp A→B at 10 µM [7]: 27 ×10⁻⁶ cm/s
solubility at 24 h [16]: 55 µM (≈ 26.7 µg/mL)
logD [20]: 2.2
IC50 [25]: 240 nM
Compound: Nc1ccc2ncc(CN3C(=O)c4cc(F)ccc4[C@]34CCN(Cc3ccc(F)cc3)C4=O)cc2n1
Ratio IC50 [24]: 18

bioavailability [1]: 3%
hepatocyte CLint [2]: 13 µL/min/1e6 cells
Vdss [4]: 2.7 L/kg
Papp A→B at 10 µM [7]: 2.7 ×10⁻⁶ cm/s
half-life [8]: 53.4 min
hepatocyte CLint [14]: < 1 µL/min/1e6 cells
Vdss [15]: 7.8 L/kg
solubility at 24 h [16]: 106 µM (≈ 50.2 µg/mL)
half-life [17]: 30 min
logD [20]: 2.2
Compound: Nc1ccc2[nH]c(CN3C(=O)c4cc(F)ccc4[C@]34CCN(Cc3ccc(F)cc3)C4=O)cc2n1

hepatocyte CLint [2]: 123 µL/min/1e6 cells
logD [20]: 3.2
Compound: O=C(NCc1ccc(F)cc1)C1c2ccc(F)cc2C(=O)N1Cc1cc2cccnc2[nH]1 (configuration not stated)

hepatocyte CLint [2]: 13 µL/min/1e6 cells
logD [20]: 2.1
Compound: N#Cc1ccc2c(c1)C(C(=O)NCc1ccc(F)cc1)N(Cc1cnc(NC(=N)N)s1)C2=O (configuration not stated)
